# Reference: patent publication US12338296B2, “Peptides and compounds that bind to elongation initiation factor 4E” (AGENCY FOR SCIENCE, TECHNOLOGY AND RESEARCH, priority 2019, dated 2025)
# “Also recorded” adds a separate entry of the source.
# Columns and labels:
# eIF4E [1] = biological target: T1, eIF4E (Homo sapiens, UniProt P06730); assay: Tryptophan quenching experiments; assay type: binding; details: 1 μM eIF4E, 0.01-20 μM titrant, excitation 290 nm, emission 355 nm; FIG. 2
# T1 construct: made in house; Plasmid and cells were provided by Cyclacel Ltd., Dundee
# T1 sequence (P06730 whole entry): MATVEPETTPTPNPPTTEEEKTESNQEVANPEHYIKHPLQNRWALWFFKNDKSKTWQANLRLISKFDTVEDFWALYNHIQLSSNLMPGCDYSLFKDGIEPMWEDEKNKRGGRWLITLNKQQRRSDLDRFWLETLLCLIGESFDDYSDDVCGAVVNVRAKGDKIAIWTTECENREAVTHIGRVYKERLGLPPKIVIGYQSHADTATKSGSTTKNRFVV
# Description: Tryptophan Quenching Experiments
# Tryptophan quenching experiments were performed using an EnVision® multiplate reader with black matte 96-well plates. […] Concentrations tested ranged from 0.01-20 μM. Samples were excited with UV light at 290 nm to minimise contribution from tyrosine fluorescence. Tryptophan was measured at an emission wavelength of 355 nm.
# eIF4E cap-binding site = biological target: T2, eIF4E cap-binding site (Homo sapiens, UniProt P06730); assay: Competitive fluorescence polarization, cap analogue binding assessment (FAM labelled m7GTP); details: eIF4E 250 nM, labelled m7GTP 50 nM; FIG. 1B; listed as EE-02
# T2 construct: made in house; Plasmid and cells were provided by Cyclacel Ltd., Dundee
# T2 sequence (P06730 whole entry): as above
# Description: Apparent Kd values were determined by fitting the experimental data to the equations shown below:
# [formula] [L]st and [L]t denote labeled ligand and total unlabeled ligand input concentrations, respectively. Kd2 is the dissociation constant of the interaction between the unlabelled ligand and the protein. In all competitive types of experiments, it is assumed that [P]t>[L]st, otherwise considerable amounts of free labeled ligand would always be present and would interfere with measurements. Kd1 is the apparent Kd for the labeled peptide used in the respective experiment. […] Readings were carried out with a Envision Multi-label Reader (PerkinElmer). Experiments were carried out in PBS (2.7 mM KCl, 137 mM NaCl, 10 mM NaHPO4 and 2 mM KHPO4 (pH 7.4)), 3% DMSO (v/v) and 0.1% Tween 20 buffer. All titrations were carried out in triplicate. Curve-fitting was carried out using Prism 4.0 (GraphPad). […]
# From these initial results it was predicted the new peptide motif might interact with eIF4E either via a different binding pose at the eIF4G binding site, or at the cap-binding site or elsewhere on the protein. The binding site was initially delineated on eIF4E by using two types of competitive fluorescence polarization experiments, one of which utilised a FAM labelled cap-analogue and the other that used a FAM labelled eIF4G1 derived peptide (FIG. 1).
# eIF4E [2] = biological target: T1, eIF4E; assay: Fluorescence anisotropy direct titration of eIF4E against FAM labelled tracers; details: 50 nM tracer, eIF4E titrated, 1:1 binding model; read-out: Kd for interaction of labelled tracer with eIF4E
# From the text: Fluorescence Anisotropy Assays and Kd Determination.
# Both were used later for subsequent Kd determination in competition experiments.
compound,measurement,setting,value
CSCC[C@@H]1NC(=O)[C@H](CCC(=O)O)NC(=O)[C@@H](NC(=O)[C@H](C)N)CSSC[C@@H](C(=O)NCC(N)=O)NC(=O)[C@H](CC(=O)O)NC(=O)[C@H](CCC(N)=O)NC(=O)[C@H](Cc2ccccc2)NC(=O)[C@H](Cc2ccccc2)NC(=O)CNC1=O [EE-2],tryptophan quenching of eIF4E,eIF4E [1],significantly different profile to m7GTP/m7GDP
same,displacement of fluorescently labelled m7GTP from eIF4E,eIF4E cap-binding site,most potent peptide out of the set identified; also recorded: can displace fluorescently labelled m7GTP
m^7GTP-6-FAM,Kd,eIF4E [2],149 nM
